Measurements: patent US10889606B2, “Biflavone-iron complex, preparation method and application thereof” (NANJING FORESTRY UNIVERSITY, priority 2017, dated 2021)

Legend:
herring sperm DNA (fDNA) = test: Interaction with herring sperm DNA (fDNA) by UV-vis spectroscopy, fluorescence spectroscopy and viscosity method; type: binding; details: UV-vis, fluorescence (fDNA-EB system), viscosity
Source text: UV-vis spectroscopy, fluorescence spectroscopy and viscosity method are used to study the interaction between the Ame/Ame-Fe complex and herring sperm DNA (fDNA) to further reveal the mechanism of antitumor activity, the obtained spectra are shown in FIGS. 7-11. […] Thereby, it can be speculated that the mechanism of antitumor activity of the Ame and its complex may be that Ame or the complex thereof enters the interior of the cell and intercalates with the DNA strand to cause apoptosis. Since the interaction of the complex with DNA is stronger than of the Ame, the antitumor activity thereof is also stronger than of the Ame.

[1] = Pyrogallol auto-oxidation method, O2^−. free radical scavenging; details: Tris-HCl pH 8.20, 25° C., 322 nm, read-out: IC50 to scavenge O2^−. free radical
Description: (1) Pyrogallol Auto-Oxidation Method
Determination of auto-oxidation rate V0 of pyrogallol: 2 mL Tris-HCl buffer (pH=8.20) was added to a 10 mL sample tube at 25° C., 100 μL, DMSO was added as a control, after adding 0.8 mL distilled water, 0.2 mL pyrogallol solution having a concentration of 2 mmol·L^−1 was added, the mixture was poured into a cuvette after mixing uniformly, the absorbance at 322 nm was measured with pure water as a blank, the A value was recorded every 10 s for a total of 4 min, linear regression was performed with t as the abscissa, and A as the ordinate, straight line slope thereof is V0, and the measurement was performed for three times to obtain an average value.
The free radical scavenging rate was calculated according to Formula 3. SR(%)=(1−v1/v0)×[…] (Formula 3)

[2] = ABTS method, ABTS^+. free radical scavenging; details: read-out: IC50 for scavenging ABTS^+. free radicals, 25° C., 5 min, 730 nm
Description: The free radical scavenging abilities of the Ame and the Ame-Fe complex were studied by pyrogallol auto-oxidation method and ABTS method with the following steps:
Within a certain range, the scavenging rate is linear with the concentration. The curve of the scavenging rate and the concentration (c) is plotted in the present invention to obtain a corresponding linear equation, and the maximum half-inhibitory concentration (IC50 value) is calculated.

IC50 [1]: 23.3 µM
IC50 [2]: 20.7 µM
SMILES: O=c1cc(-c2ccc(O)c(-c3c(O)cc(O)c4c(=O)cc(-c5ccc(O)cc5)oc34)c2)oc2cc(O)cc(O)c12 [Ame, amentoflavone]
manner of interaction with fDNA (herring sperm DNA (fDNA)): in the intercalation manner
